Measurements from US10227561B2, “Methods and compositions for targeting progenitor cell lines” (Mandala Biosciences, LLC, priority 2012, dated 2019).
Like-named read-outs stand apart in the source and are kept apart here.

Legend:
[1] = test system: somatic cells; details: cited from earlier work
[2] = test system: W10 progenitor cell line; assay: Immunofluorescent staining of bound phage; format: binding, human; details: peptide display phage, 2×10^10 pfu/well, live cells, 2 h at 37° C.
Experimental: The binding specificity of selected phages was determined by immunofluorescent staining of bound phage to the surface of W10 progenitor cell line. Cells were plated at 100,000 cells/well in 24 well plates and incubated overnight. Phages at 2×10^10 pfu/well were diluted in 0.5 ml of W10 growth media supplemented with 2% BSA and incubated with live cells for 2 h at 37° C. Cells were washed as for the selection experiments and fixed by 4% paraformaldehyde for 20 min at RT. Cells were washed twice with PBS and permeabilized by ice-cold MeOH for 15 min on ice. After another two washes, cells were blocked with 5% goat serum in 2% BSA in PBS for 1 h at RT or overnight at 4° C. Cells were incubated with 1:700 dilution of rabbit anti-Fd bacteriophage antibody (Sigma, B7786) in 2% BSA in PBS for 1 h at RT. Cells were washed with 2 ml of 1% BSA in PBS three times, and incubated with 1:1000 dilution of goat anti-rabbit AlexaFluor568 conjugated antibody (Invitrogen, A11011) in 1% BSA in PBS for 1 h at RT. Cells were counterstained with DAPI at 0.1 μg/ml after final washes and photographed by an Olympus IX71 fluorescence microscope. Images were taken and processed using MetaMorph (version 7.5.6.0, Molecular Devices), ImageJ (version 1.45b, National Institute of Health) or Photoshop (version 9.0.2, Adobe) software.

[3] = test system: 10 embryonic progenitor cell lines; assay: Selectivity of Qdot peptide complexes, panel of progenitor lines; format: cell-based, human; details: out of the 10 lines; peptide targeted Qdots, flow cytometry
Experimental: (§1) FIG. 6. Selectivity of Qdot peptide complexes. Embryonic progenitor cell lines were labeled with Qdot complexes in their corresponding growth media and analyzed by flow cytometry as in (FIG. 5C). Percentage of labeled cells was calculated by setting up gates (allowing up to 1%) using the progenitor cell line labeled with untargeted Qdots and unlabeled cells. 10,000 events were recorded for each sample. Values are from triplicate experiments and shown as mean+/−standard error.
(§2) For flow cytometric analysis of labeled cells, cells were removed from the plates using TrypLE for 5 min at 37° C. Cells were resuspended in PBS, passed through strain top tubes and analyzed using flow cytometer. Control samples included unlabeled cells and cells labeled with untargeted Qdots. For each sample, 10,000 events were quantified. The LSRFortessa flow cytometer (BD Biosciences) was used with a violet laser excitation at 405 nm with a 605/23 bandpass filter to detect Qdot605 and the yellow laser excitation at 561 nm with a 670/30 bandpass filter to detect Qdot655. Cell autofluorescence was detected with the blue laser excited at 488 nm and a 510/25 bandpass filter.
2 μM of Qdot Streptavidin conjugate (Qdot605 ITK SA, Invitrogen, Q10001MP) were diluted in 100 μl of binding buffer (supplied with Qdot605 ITK SA) and incubated with 100-fold excess of biotinylated peptide on ice for 1 h. […]

[4] = test system: hPS cells differentiated using culture conditions for definitive endoderm; assay: Peptide targeted Qdot labeling of differentiating hPS cells; format: cell-based, human; details: definitive endoderm conditions (high activin A, low serum); 5 nM, 16 h at 37° C.
Experimental: (§3) FIG. 7A and FIG. 7B. Labeling of a differentiating pluripotent stem cells using peptide targeted Qdots. FIG. 7A: Selective peptide targeting of human embryonic stem cells (H9) that were differentiated into the three germ layers (see methods for protocols) for 6-8 days compared to undifferentiated control. Differentiated cells were incubated for 16 h at 37° C. with 5 nM of Qdot complexes, washed and imaged using a fluorescence microscope. Representative bright-field and fluorescent signal of W10 peptide Qdot complexes (red) are shown. FIG. 7B: Cells were stained with the following differentiation markers to verify the germ layer commitment: nestin for ectoderm, α-actinin for mesoderm, SOX17 for endoderm conditions and OCT3/4 for undifferentiated cells.
(§4) 2 μM of Qdot Streptavidin conjugate (Qdot605 ITK SA, Invitrogen, Q10001MP) were diluted in 100 μl of binding buffer (supplied with Qdot605 ITK SA) and incubated with 100-fold excess of biotinylated peptide on ice for 1 h. Uncoupled biotinylated peptide was removed from the mixture by incubating it with streptavidin magnetic beads equilibrated in PBS on ice for 30 min; placing the mixture on a magnetic stand to separate the beads and removed the complexes in solution. SA-beads were washed with PBS and combined with the recovered complexes. For control reactions, Qdots were incubated with binding buffer and treated in similar way as the peptide complexes. The concentration of Qdot-peptide complexes was estimated based on the final volume recovered. To label cells with the Qdot-complexes, 100,000 cells were plated on gelatin-coated wells of 24 well plates were incubated for 6 hours; 5 nM of Qdot-peptides in growth media was added to the cells and incubated for 16 h at 37° C. Cells were imaged after washes with PBS to remove the unbound Qdot-complexes.
(§5) For ectoderm differentiation conditions, embryoid bodies (EBs) were formed from colonies by manual techniques and grown in complete NPC media (DMEM-F12:Neurobasal media 1:1+50 μl/ml BIT9500 Serum substitute (Stemgent)+1% GlutaMax+1% penicillin-streptomycin+1 μl/ml B27 supplement (Invitrogen)+5 mM nicotinamide+5 μg/ml insulin+20 ng/ml EGF+20 ng/ml bFGF) in low attachment plates for 6 days; EBs were then plated on fibronectin-coated wells and grown for another 3 days. For mesoderm differentiation conditions, EBs were cultured as above except that media was DMEM-F12 with GlutaMax+20% FBS+1% NEAA+1% penicillin-streptomycin, and plated on 0.1% gelatin-coated wells. For endodermal differentiation conditions, undifferentiated H9 cells were transferred from colonies growing with MEFs to Geltrex™ (Life Technologies, Grand Island, N.Y.)-coated wells and grown for 2 days with MEF-conditioned media+4 ng/ml bFGF. From day 2, cells were grown for another 5 days in RPMI+0.5% FBS+100 ng/ml Activin A.

[5] = test system: hPS cells grown under mesoderm differentiation conditions; assay: as above; format: cell-based, human; details: 5 nM, 16 h at 37° C.
Experimental: as §3, §4, §5

[6] = test system: W10 cells; assay: Peptide competition for phage binding; design: species or system human; details: for specificity of binding (lack of competition with scrambled peptides): free peptide against scrambled peptide; for competition of the 2 peptides with each other for W10 cell binding: data not shown
Experimental: Cells were plated at 100,000 cells/well in 24 well plates and incubated overnight. The corresponding synthetic peptide for each peptide phage or control peptides (unrelated or scrambled sequence peptide) were pre-incubated with cells at 5 nM or 5 μM in W10 growth media supplemented with 2% BSA for 30 min at 4° C. Peptide phages at 2×10^10 pfu/well were added to the peptide dilution and incubated with live cells for 1 h at 4° C. Peptide phage bound to cells was detected by immunostaining and fluorescence microscopy using anti-phage antibody on fixed and permeabilized cells or quantified by titration of phages recovered from cell lysates. The percentage of recovered phage for the competition assay was normalized by the recovered phage in the no-peptide control. Duplicate independent experiments were performed for competition experiments.

[7] = test system: W10 cells; assay: Cell labeling with peptide targeted Qdot complexes (microscopy, flow cytometry); format: cell-based, human
Experimental: as §2
2 μM of Qdot Streptavidin conjugate (Qdot605 ITK SA, Invitrogen, Q10001MP) were diluted in 100 μl of binding buffer (supplied with Qdot605 ITK SA) and incubated with 100-fold excess of biotinylated peptide on ice for 1 h. Uncoupled biotinylated peptide was removed from the mixture by incubating it with streptavidin magnetic beads equilibrated in PBS on ice for 30 min; placing the mixture on a magnetic stand to separate the beads and removed the complexes in solution. SA-beads were washed with PBS and combined with the recovered complexes. For control reactions, Qdots were incubated with binding buffer and treated in similar way as the peptide complexes. […]

[8] = test system: 4D20.8 cells; assay: Qdot peptide complex labeling, flow cytometry; format: cell-based, human
Experimental: as §1, §2, §4

[9] = test system: 7PEND24 cell line; assay: Qdot peptide complex labeling, flow cytometry; format: cell-based, human; details: for cell labeling by peptide Qdot complexes: 7PEND24, in words
Experimental: as §1, §2, §4

[10] = test system: E15 cells; assay: Qdot peptide complex labeling, flow cytometry; format: cell-based, human
Experimental: as §1, §2, §4

[11] = test system: SM30 cell line; assay: Qdot peptide complex labeling, flow cytometry; format: cell-based, human
Experimental: as §1, §2, §4

[12] = test system: MW1 cell line; assay: Qdot peptide complex labeling, flow cytometry; format: cell-based, human
Experimental: as §1, §2, §4

Row | Molecule | binding of peptide phage detected by immunocytochemical staining [2] | cell labeling by Qdot complexes [4] | cell labeling by Qdot complexes [5] | specificity of binding (lack of competition with scrambled peptides) [6] | cell labeling by peptide Qdot complexes [8] | cell labeling by peptide Qdot complexes [9] | cell labeling by peptide Qdot complexes [10] | competition of the 2 peptides with each other for W10 cell binding [6] | other results
1 | O=C(NCc1ccccc1)c1csc(Nc2ccncn2)n1 [Thiazovivin] | – | – | – | – | – | – | – | – | increase of reprogramming efficiency ([1]; Thiazovivin with the two previous chemicals (SB431412, PD0325901)): 200 fold
2 | CCCC(CCC)C(=O)O [valproic acid] | – | – | – | – | – | – | – | – | increase of reprogramming efficiency ([1]; compared to Yamanaka's traditional transcription factor method): 100 fold
3 | DWLWSFAPNVDT (FROM PHAGE DISPLAY LIBRARY) [W10 R3 18, W10 selected 12-mer; tested as M13 display phage, C-terminal biotinylated free peptide and streptavidin Qdot complex] | strongest binding | a high percentage of cells were labeled | a few small patches of labeled cells | sequence specific | – | – | – | – | number of embryonic progenitor cell lines with a high percentage of cells bound [3]: 7; percentage of cells labeled with peptide-Qdot complexes ([7]; 5 nM Qdot complexes, 16 h at 37° C., gated on untargeted Qdots): 90%; fluorescent shift of labeled cells ([7]; compared to untargeted Qdots): strong fluorescent shift
4 | GWVIDYDYYPMR (FROM PHAGE DISPLAY LIBRARY) [W10 R2 11, W10 selected 12-mer; tested as M13 display phage, C-terminal biotinylated free peptide and streptavidin Qdot complex] | strongest binding | a high percentage of cells were labeled | a few small patches of labeled cells | sequence specific | very little labeling | high percentage binding | very little labeling | can compete with each other | –
5 | GWYWETPLDMFN (FROM PHAGE DISPLAY LIBRARY) [W10 R2 21, W10 selected 12-mer; tested as M13 display phage, C-terminal biotinylated free peptide and streptavidin Qdot complex] | strongest binding | a high percentage of cells were labeled | a few small patches of labeled cells | sequence specific | very little labeling | high percentage binding | very little labeling | can compete with each other | competition for peptide phage binding (recovered phage, percentage of no-peptide control) ([6]; C-terminal biotinylated free peptide at 5 nM or 5 μM, 4° C.): only significant at 5 μM
6 | YEFDNLLNRTLW (FROM PHAGE DISPLAY LIBRARY) [W10 R2 1, W10 selected 12-mer; tested as M13 display phage, C-terminal biotinylated free peptide and streptavidin Qdot complex] | strongest binding | highly restricted to a small percentage of cells | no labeling | – | no complex uptake | – | no complex uptake | – | cell labeling ([9]; 7PEND24): more than 15%; cell labeling [11]: more than 15%; cell labeling [12]: more than 15%
